From patent US8952024B2, “Herbicidal pyrimidone derivatives” (E I du Pont de Nemours and Company, priority 2009, dated 2015)
Read-outs that look alike come from different tables or passages of the source.

Legend:
Experiment in all cases: Test B pre-/postemergence plant response
Type in all cases: in vivo
[1] = system: pigweed (Amaranthus retroflexus); conditions: for pest or weed control at 31 g/ha: 31 g ai/ha; for pest or weed control at 125 g/ha: 125 g ai/ha
Summary of the method: (§1)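 Compound in solvent + surfactant applied pre-em (loam/sand) or post-em (plants 2–18 cm, peat medium); greenhouse hold 13–15 days; visual 0–100 control score.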

[2] = system: johnsongrass (Sorghum halepense); conditions: for pest or weed control at 31 g/ha: 31 g ai/ha; for pest or weed control at 125 g/ha: 125 g ai/ha
Summary of the method: as §1

[3] = system: wild oat (Avena fatua); conditions: for pest or weed control at 31 g/ha: 31 g ai/ha; for pest or weed control at 125 g/ha: 125 g ai/ha
Summary of the method: as §1

[4] = system: bermudagrass (Cynodon dactylon); conditions: for pest or weed control at 31 g/ha: 31 g ai/ha; for pest or weed control at 125 g/ha: 125 g ai/ha
Summary of the method: as §1

[5] = system: green foxtail (Setaria viridis); conditions: for pest or weed control at 31 g/ha: 31 g ai/ha; for pest or weed control at 125 g/ha: 125 g ai/ha
Summary of the method: as §1

[6] = system: lambsquarters (Chenopodium album); conditions: for pest or weed control at 31 g/ha: 31 g ai/ha; for pest or weed control at 125 g/ha: 125 g ai/ha
Summary of the method: as §1

[7] = system: giant foxtail (Setaria faberii)
Summary of the method: as §1

[8] = 62 g ai/ha, postemergence, 0 is no effect, 100 is complete control, 13 to 15 days
[9] = Preemergence, 250 g ai/ha, 0 to 100 scale

SMILES: O=C1CCCC(O)=C1C(=O)c1cnc(-c2cccnc2)n(-c2ccccc2)c1=O [Compound 113, 5-[(2-hydroxy-6-oxo-1-cyclohexen-1-yl)carbonyl]-3-phenyl-2-(3-pyridinyl)-4(3H)-pyrimidone]
- Pigweed plant response rating (0 to 100 scale) [1, 8]: 100
- pest or weed control at 31 g/ha ([1]; Amaranthus retroflexus, post-emergence, postemergence, scale 0 to 100, 0 is no effect, 100 is complete control, read-out: Plant response rating, Pigweed): 95%
- pest or weed control at 125 g/ha ([1]; Amaranthus retroflexus, post-emergence, Postemergence, scale 0 to 100 (0 no effect, 100 complete control), read-out: Plant response rating, Pigweed): 100%
- pest or weed control at 250 g/ha ([1]; Amaranthus retroflexus, post-emergence, Postemergence, 250 g ai/ha, scale 0 to 100 (0 no effect, 100 complete control), read-out: Plant response rating, Pigweed): 100%
- pest or weed control at 31 g/ha ([1]; Amaranthus retroflexus, pre-emergence, Preemergence, scale 0 to 100 (0 no effect, 100 complete control), read-out: Plant response rating, Pigweed): 98%
- pest or weed control at 62 g/ha ([1]; Amaranthus retroflexus, pre-emergence, Preemergence, 62 g ai/ha, scale 0 to 100 (0 no effect, 100 complete control), read-out: Plant response rating, Pigweed): 98%
- pest or weed control at 125 g/ha ([1]; Amaranthus retroflexus, pre-emergence, Preemergence, scale 0 to 100, 0 no effect, 100 complete control, read-out: Plant response rating, Pigweed): 100%
- Pigweed plant response rating [1, 9]: 100
- Johnsongrass plant response rating (0 to 100 scale) [2, 8]: 85
- Johnsongrass plant response rating [2, 9]: 70
- pest or weed control at 31 g/ha ([2]; Sorghum halepense, post-emergence, postemergence, scale 0 to 100, 0 is no effect, 100 is complete control, read-out: Plant response rating, Johnsongrass): 65%
- pest or weed control at 125 g/ha ([2]; Sorghum halepense, post-emergence, Postemergence, scale 0 to 100 (0 no effect, 100 complete control), read-out: Plant response rating, Johnsongrass): 90%
- pest or weed control at 250 g/ha ([2]; Sorghum halepense, post-emergence, Postemergence, 250 g ai/ha, scale 0 to 100 (0 no effect, 100 complete control), read-out: Plant response rating, Johnsongrass): 95%
- pest or weed control at 31 g/ha ([2]; Sorghum halepense, pre-emergence, Preemergence, scale 0 to 100 (0 no effect, 100 complete control), read-out: Plant response rating, Johnsongrass): 0%
- pest or weed control at 62 g/ha ([2]; Sorghum halepense, pre-emergence, Preemergence, 62 g ai/ha, scale 0 to 100, 0 no effect, 100 complete control, read-out: Plant response rating, Johnsongrass): 5%
- pest or weed control at 125 g/ha ([2]; Sorghum halepense, pre-emergence, Preemergence, scale 0 to 100, 0 no effect, 100 complete control, read-out: Plant response rating, Johnsongrass): 60%
- Oat, Wild plant response rating (0 to 100 scale) [3, 8]: 40
- pest or weed control at 31 g/ha ([3]; Avena fatua, post-emergence, postemergence, scale 0 to 100, 0 is no effect, 100 is complete control, read-out: Plant response rating, Oat, Wild): 20%
- pest or weed control at 125 g/ha ([3]; Avena fatua, post-emergence, Postemergence, scale 0 to 100 (0 no effect, 100 complete control), read-out: Plant response rating, Oat, Wild): 45%
- pest or weed control at 250 g/ha ([3]; Avena fatua, post-emergence, Postemergence, 250 g ai/ha, scale 0 to 100 (0 no effect, 100 complete control), read-out: Plant response rating, Oat, Wild): 85%
- pest or weed control at 31 g/ha ([3]; Avena fatua, pre-emergence, Preemergence, scale 0 to 100 (0 no effect, 100 complete control), read-out: Plant response rating, Oat, Wild): 0%
- pest or weed control at 62 g/ha ([3]; Avena fatua, pre-emergence, Preemergence, 62 g ai/ha, scale 0 to 100 (0 no effect, 100 complete control), read-out: Plant response rating, Oat, Wild): 5%
- pest or weed control at 125 g/ha ([3]; Avena fatua, pre-emergence, Preemergence, scale 0 to 100, 0 no effect, 100 complete control, read-out: Plant response rating, Oat, Wild): 20%
- Oat, Wild plant response rating [3, 9]: 40
- Bermudagrass plant response rating (0 to 100 scale) [4, 8]: 90
- pest or weed control at 31 g/ha ([4]; Cynodon dactylon, post-emergence, postemergence, scale 0 to 100, 0 is no effect, 100 is complete control, read-out: Plant response rating, Bermudagrass): 80%
- pest or weed control at 125 g/ha ([4]; Cynodon dactylon, post-emergence, Postemergence, scale 0 to 100 (0 no effect, 100 complete control), read-out: Plant response rating, Bermudagrass): 95%
- pest or weed control at 250 g/ha ([4]; Cynodon dactylon, post-emergence, Postemergence, 250 g ai/ha, scale 0 to 100 (0 no effect, 100 complete control), read-out: Plant response rating, Bermudagrass): 95%
- pest or weed control at 31 g/ha ([4]; Cynodon dactylon, pre-emergence, Preemergence, scale 0 to 100 (0 no effect, 100 complete control), read-out: Plant response rating, Bermudagrass): 95%
- pest or weed control at 62 g/ha ([4]; Cynodon dactylon, pre-emergence, Preemergence, 62 g ai/ha, scale 0 to 100, 0 no effect, 100 complete control, read-out: Plant response rating, Bermudagrass): 95%
- pest or weed control at 125 g/ha ([4]; Cynodon dactylon, pre-emergence, Preemergence, scale 0 to 100, 0 no effect, 100 complete control, read-out: Plant response rating, Bermudagrass): 100%
- Bermudagrass plant response rating ([4]; Preemergence, 250 g ai/ha, 0 to 100 scale, 0 no effect, 100 complete control): 100
- Foxtail, Green plant response rating (0 to 100 scale) [5, 8]: 80
- Foxtail, Green plant response rating [5, 9]: 100
- pest or weed control at 31 g/ha ([5]; Setaria viridis, post-emergence, postemergence, scale 0 to 100, 0 is no effect, 100 is complete control, read-out: Plant response rating, Foxtail, Green): 80%
- pest or weed control at 125 g/ha ([5]; Setaria viridis, post-emergence, Postemergence, scale 0 to 100 (0 no effect, 100 complete control), read-out: Plant response rating, Foxtail, Green): 80%
- pest or weed control at 250 g/ha ([5]; Setaria viridis, post-emergence, Postemergence, 250 g ai/ha, scale 0 to 100 (0 no effect, 100 complete control), read-out: Plant response rating, Foxtail, Green): 95%
- pest or weed control at 31 g/ha ([5]; Setaria viridis, pre-emergence, Preemergence, scale 0 to 100 (0 no effect, 100 complete control), read-out: Plant response rating, Foxtail, Green): 10%
- pest or weed control at 62 g/ha ([5]; Setaria viridis, pre-emergence, Preemergence, 62 g ai/ha, scale 0 to 100, 0 no effect, 100 complete control, read-out: Plant response rating, Foxtail, Green): 40%
- pest or weed control at 125 g/ha ([5]; Setaria viridis, pre-emergence, Preemergence, scale 0 to 100, 0 no effect, 100 complete control, read-out: Plant response rating, Foxtail, Green): 60%
- Lambsquarters plant response rating (0 to 100 scale) [6, 8]: 98
- pest or weed control at 31 g/ha ([6]; Chenopodium album, post-emergence, postemergence, scale 0 to 100, 0 is no effect, 100 is complete control, read-out: Plant response rating, Lambsquarters): 95%
- pest or weed control at 125 g/ha ([6]; Chenopodium album, post-emergence, Postemergence, scale 0 to 100 (0 no effect, 100 complete control), read-out: Plant response rating, Lambsquarters): 98%
- pest or weed control at 250 g/ha ([6]; Chenopodium album, post-emergence, Postemergence, 250 g ai/ha, scale 0 to 100 (0 no effect, 100 complete control), read-out: Plant response rating, Lambsquarters): 98%
- pest or weed control at 31 g/ha ([6]; Chenopodium album, pre-emergence, Preemergence, scale 0 to 100 (0 no effect, 100 complete control), read-out: Plant response rating, Lambsquarters): 98%
- pest or weed control at 62 g/ha ([6]; Chenopodium album, pre-emergence, Preemergence, 62 g ai/ha, scale 0 to 100, 0 no effect, 100 complete control, read-out: Plant response rating, Lambsquarters): 100%
- pest or weed control at 125 g/ha ([6]; Chenopodium album, pre-emergence, Preemergence, scale 0 to 100, 0 no effect, 100 complete control, read-out: Plant response rating, Lambsquarters): 100%
- Lambsquarters plant response rating [6, 9]: 100
- Foxtail, Giant plant response rating (0 to 100 scale) [7, 8]: 85
- Foxtail, Giant plant response rating [7, 9]: 85
- pest or weed control at 31 g/ha ([7]; Setaria faberi, post-emergence, 31 g ai/ha, postemergence, scale 0 to 100, 0 is no effect, 100 is complete control, read-out: Plant response rating, Foxtail, Giant): 80%
